Read-outs that look alike come from different tables or passages of the source.
How the values were obtained:
HRH4 = target: T1, HRH4 (Homo sapiens, UniProt Q9H3N8); test: β-arrestin GPCR internalization assay; assay type: cell-based; conditions: for EC50: read-out: RC50 (EC50)
T1 construct: Eurofins Discover X, USA

SST4 [1] = target: T2, SST4 (Homo sapiens, UniProt P31391); test: biochemical
SST4 [2] = target: T2, SST4; test: In vitro functional assay, SST4; assay type: cell-based; conditions: agonist; highest concentration tested 10 μm
[3] = test system: PNT-induced neuropathic pain in pigs; test: Peripheral neuritis trauma (PNT)-induced neuropathic pain in pigs; assay type: in vivo; conditions: topical twice daily 0.1%, 0.33%, 1%
Excerpt: 30 pigs were anaesthetized and an incision of 8-10 cm made through the skin and fascia on the left side of their lower backs, approximately 1 cm lateral and parallel to the spine line. The muscles were retracted and the sciatic nerve exposed. Following exposure, PNT was induced by loosely tying (1-2 mm apart) around the lateral half of the sciatic nerve bundle, three 3-0 silk threads, each previously immersed in complete Freund's adjuvant. 14 days after surgery and once chronic neuropathic pain had been established, treatment was initiated according to the protocol shown in Table 5. [table] At time points over the following 14 days, the animals were assessed for a variety of pain and motor parameters.

Adrenergic α2A = Adrenergic α2A (Homo sapiens, UniProt P08913); test: biochemical
Adrenergic α2A, sequence (P08913 whole entry): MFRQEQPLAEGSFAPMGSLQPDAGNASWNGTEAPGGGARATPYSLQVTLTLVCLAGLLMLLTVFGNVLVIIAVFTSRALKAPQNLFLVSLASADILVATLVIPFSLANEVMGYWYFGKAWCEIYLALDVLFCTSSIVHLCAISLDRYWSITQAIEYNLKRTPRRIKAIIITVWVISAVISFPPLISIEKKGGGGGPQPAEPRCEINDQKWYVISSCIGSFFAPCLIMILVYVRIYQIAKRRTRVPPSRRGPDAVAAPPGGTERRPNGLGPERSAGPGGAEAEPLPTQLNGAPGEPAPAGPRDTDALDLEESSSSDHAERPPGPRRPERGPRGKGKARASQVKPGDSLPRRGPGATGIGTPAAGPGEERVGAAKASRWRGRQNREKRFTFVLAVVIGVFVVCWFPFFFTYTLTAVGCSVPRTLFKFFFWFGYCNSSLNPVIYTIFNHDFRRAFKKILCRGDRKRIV

Adrenergic α2C = Adrenergic α2C (Homo sapiens, UniProt P18825); test: biochemical
Adrenergic α2C, sequence (P18825 whole entry): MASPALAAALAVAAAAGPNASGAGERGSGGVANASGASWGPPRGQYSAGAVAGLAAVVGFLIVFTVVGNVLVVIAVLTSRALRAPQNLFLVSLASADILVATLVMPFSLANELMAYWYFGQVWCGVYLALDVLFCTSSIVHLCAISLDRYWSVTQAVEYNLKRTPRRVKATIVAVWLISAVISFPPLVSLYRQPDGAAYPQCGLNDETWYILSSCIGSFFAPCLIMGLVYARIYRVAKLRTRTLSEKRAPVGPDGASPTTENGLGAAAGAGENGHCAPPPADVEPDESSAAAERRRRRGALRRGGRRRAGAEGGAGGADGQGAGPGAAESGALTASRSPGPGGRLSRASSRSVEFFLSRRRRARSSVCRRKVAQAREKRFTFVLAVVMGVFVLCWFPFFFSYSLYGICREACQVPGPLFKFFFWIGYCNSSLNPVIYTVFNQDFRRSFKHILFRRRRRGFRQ

T2 sequence (P31391 whole entry): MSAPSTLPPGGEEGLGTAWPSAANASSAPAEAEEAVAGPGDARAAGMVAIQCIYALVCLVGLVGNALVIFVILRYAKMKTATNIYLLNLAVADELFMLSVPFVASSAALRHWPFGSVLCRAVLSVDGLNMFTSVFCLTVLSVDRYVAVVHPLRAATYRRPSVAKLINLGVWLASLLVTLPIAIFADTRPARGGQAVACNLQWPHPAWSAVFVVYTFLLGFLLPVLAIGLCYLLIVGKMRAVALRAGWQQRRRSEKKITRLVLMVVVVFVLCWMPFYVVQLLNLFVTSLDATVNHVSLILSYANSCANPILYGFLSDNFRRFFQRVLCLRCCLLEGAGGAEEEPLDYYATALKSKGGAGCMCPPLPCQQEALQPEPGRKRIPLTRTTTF
T1 sequence (Q9H3N8 whole entry): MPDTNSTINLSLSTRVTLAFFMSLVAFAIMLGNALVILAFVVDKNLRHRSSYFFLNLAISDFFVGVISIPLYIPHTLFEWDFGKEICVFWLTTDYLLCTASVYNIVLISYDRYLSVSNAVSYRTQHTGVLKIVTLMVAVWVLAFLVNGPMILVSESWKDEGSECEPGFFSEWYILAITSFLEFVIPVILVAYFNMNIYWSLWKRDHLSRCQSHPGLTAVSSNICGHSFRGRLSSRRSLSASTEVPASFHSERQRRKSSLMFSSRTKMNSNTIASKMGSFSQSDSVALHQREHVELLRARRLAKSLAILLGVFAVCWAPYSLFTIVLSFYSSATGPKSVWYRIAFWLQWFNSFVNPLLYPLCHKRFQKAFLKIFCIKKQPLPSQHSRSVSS

Cc1cccc(Cc2c[nH]cn2)c1C [detomidine]
EC50 (HRH4; assay format: Agonist): 9.6 µM | IC50 (HRH4; assay format: Antagonist, read-out: RC50 (IC50)): > 100 µM | EC50 (HRH4; assay format: Inverse agonist): > 100 µM | inhibition at 10 µM (SST4 [1]): 35% | EC50 (SST4 [2]): 7.3 µM | Stimulus-evoked pain, Von Frey (VF) withdrawal threshold ([3]; 14 days, versus placebo, from Day 0): dose-dependent analgesic effect | Tactile allodynia, feather stimulation ([3]; 12-13 cm pigeon feather, as soon as Day 0): dose-dependent decreased tactile allodynia | Spontaneous pain behavior, General Behavioral Score (GBS) ([3]; 3 h and 6 h post-dose, from Day 0): dose-dependent reduction in GBS scores | Open field motor test, locomotor activity / sedation ([3]; throughout the study): did not affect locomotor activity at any dose level

Clc1cccc(Cl)c1N=C1NCCN1 [clonidine]
inhibition at 10 µM (Adrenergic α2A): 94% | inhibition at 10 µM (SST4 [1]): 13% | inhibition at 10 µM (Adrenergic α2C): 97%
